Experimental data from a melting point compilation (Tetko et al.; mined from patent text by program, amines drawn as free bases though some values may be those of a salt).

SMILES | melting point
CCNc1nc(Nc2ccccc2)ncc1C=O | 155 to 157 °C
O=C1O[C@@H](Cn2ccnn2)CN1c1ccc(-c2ccc(C3=NOC(CS(=O)(=O)CCc4ccncc4)C3)nc2)c(F)c1 (stereo not given in full) | 195 °C
Cc1cccc(-c2nc(N)ncc2-c2ccc(=O)n(C)n2)c1 | 214 °C
Clc1nc2ncnn2c(NC2CCCC2)c1-c1ccsc1 | 78 °C
CCCCN(CCCC)S(=O)(=O)c1ccc(C(CC2CCCC2)C(=O)Nc2nc3ccc(OC)nc3s2)cc1 (stereo not given) | 65 to 67 °C
CCCCCc1c(C(C)C)nc(C(C)C)c(CO)c1-c1ccc(Cl)cc1 | 83 to 85 °C
COc1cc(OC)c(C2=CCCCC2)c(OC)c1 | 127 °C
CC#CCOc1ccc(S(=O)(=O)C2(C(=O)O)CCCN(Cc3ccc(Cl)cc3)C2)cc1 (stereo not given) | 115 °C
Cc1cccc(C)c1NC(=O)CS(C)=O (stereo not given) | 112 to 114 °C
CSc1ncnn1C[C@]1(c2ccc(F)c(F)c2)O[C@@H]1c1ccccc1C(F)(F)F (relative stereo) | 83 to 85 °C
Cn1cc2ccc(F)cc2c1 | 60 to 65 °C
O=c1oc(-c2ccccc2)cc(O)c1C(SC1CCCC1)C1CCCC1 (stereo not given) | 139 to 142 °C
Cc1ccc(-n2nc3c4cc(/C=C/C(=O)OCc5ccccc5)ccc4[nH]c(=O)n3c2=O)cc1 | 242 °C
Cc1cc(F)ccc1NC(=O)CCC#Cc1ccccn1 | 110 to 114 °C
CCCNC(=O)CC1(C)Cc2c(C)c(N3CCN(c4ccc(OC)cc4)CC3)c(C)c(C)c2O1 (stereo not given) | 135 to 138 °C
CCCCCCCCON1C(C)(C)CC(OC(=O)COc2ccc(-c3nc(-c4ccc(C)cc4C)nc(-c4ccc(C)cc4C)n3)c(O)c2)CC1(C)C | 86 to 90 °C
O=[N+]([O-])c1cccc(NN=C(c2ccc(O)cc2)c2ccc(O)cc2)c1 | 160 to 162 °C
CC(c1ccco1)N(O)C(N)=O (stereo not given) | 143 to 144 °C
COc1ccc(-c2ccc(S(=O)(=O)CC(C)N(O)C=O)cc2)cc1 (stereo not given) | 197 to 198 °C
CN1CCC2(CC1)OC(c1ccc(Cl)cc1)C1CCCCN12 (stereo not given) | 122 to 124 °C
CCN(C(=O)c1ccccc1-c1ccccc1)C(C)(C)c1ccccc1 | 121 to 122 °C
COc1ccc([C@@H]2O[C@H]2C(=O)O[C@@H]2CCCC[C@H]2c2ccccc2)cc1 | 146 to 148 °C
Oc1ccc(Nc2ccc3cc(O)ccc3c2)cc1 | 195 to 196 °C
CC(=O)Nc1ccc(-c2c(Cl)c(CCl)nc3sc4c(c23)CCN(Cc2ccccc2)C4)cc1 | 203 to 204 °C
CN(CC(=O)OC(C)(C)C)C[C@@H]1CC(c2ccc(-c3ccc(N4C[C@H](Cn5ccnn5)OC4=O)cc3F)cn2)=NO1 | 180 °C

SMILES | melting point
CCCCCCOc1cc(-c2ccc3cc4c(cc3c2)C(C)(C)CCC4(C)C)ccc1C(=O)O | 105 to 106 °C
O=[N+]([O-])c1ccc2c(c1)CCN(Cc1ccccc1)C2 | 76 to 78 °C
CCN(CC)CCOc1ccc(Nc2ncc3c(n2)N(C)C(=O)N(c2ccccc2C)C3)cc1 | 132 °C
CCn1c(=O)sc2cc(C(c3ccc([N+](=O)[O-])cc3)n3cncn3)ccc21 (stereo not given) | 79 to 83 °C
Fc1ccc(Nc2nc3ccccc3o2)cc1C(F)(F)F | 190 to 191 °C
CCc1ccc2ncc([N+](=O)[O-])c(Nc3ccccc3Cl)c2c1 | 134 to 136 °C
Nc1cc(N2CCC(O)CC2)c(F)cc1[N+](=O)[O-] | 238 to 239 °C
COc1ccnc(CCc2nc3c(C)cc(C)nc3[nH]2)c1 | 176 to 178 °C
O=c1cnc(-c2cc(-c3ccsc3)cc(-c3ccsc3)c2)nn1CC(F)(F)F | 189 to 191 °C
CCOC(=O)CCC(C#N)(c1cccc(F)c1)N1CCOCC1 (stereo not given) | 88 to 90 °C
CC(=O)OC1C=C(C)C(=O)CC(C)(C)C1OC(=O)c1ccccc1 (stereo not given) | 86 to 87 °C
CCCCn1c(=O)n(CCN2CCN(c3ccccc3OC)CC2)c(=O)c2sccc21 | 139 to 140 °C
CC(C)COC(=O)N[C@H](CCCNC(=O)OCc1ccccc1)C(=O)NCc1ccc(CC(N)=O)cc1 | 145 °C
CN(CCOc1ccc(CC(S)C(=O)O)cc1)c1nc2ccccc2o1 (stereo not given) | 154 to 156 °C
Nc1nc2c(NCc3ccccc3)ncnc2n1C1OC(CO)C(O)C1O (stereo not given) | 80 to 82 °C
COC(=O)CONC(=O)c1c(Cl)ccc(Cl)c1OC | 102 to 105 °C
O=c1c(-c2ccccc2)ccc2n1CCc1ccsc1-2 | 133 to 134 °C
O=[N+]([O-])c1ccccc1S(=O)(=O)c1ccccc1 | 145 to 146 °C
COc1ccc2oc(C(C)N(O)C(N)=O)cc2c1 (stereo not given) | 149 to 151 °C
COc1c(Cl)ccc(-c2cc(N)c(OC(F)F)c(Cl)n2)c1F | 152 to 154 °C
COc1ccc(-c2cc(C(F)(F)F)n3ncc(-c4ccncc4)c3n2)cc1 | 244 °C
COc1cccc2c1cc(C(=O)O)n2CC(=O)OC(C)(C)C | 222 to 224 °C
CCCOC(=O)C(C)NC(=O)C(CC(=O)O)NC(=O)C(C)N (stereo not given) | 223 to 225 °C
CC(C)(C)OC(=O)Nc1ccc(-c2ccccc2F)cc1NC(=O)CC(=O)c1csc(-n2ccnc2)n1 | 115 to 130 °C
CNc1nc(C)c(C)cc1NC(=O)N1CCN(c2cc(OC)cc(OC)c2)CC1 | 150 to 151 °C

SMILES | melting point
Cc1cc(C(=O)Nc2cccc(Sc3ccc4nc(NC(=O)C5CC5)cn4n3)c2)n(C)n1 | 251 °C
CNC(=O)c1cc(NCc2c(C)cccc2C)c2nc(C)n(C)c2c1 | 252 to 253 °C
NC(=O)c1c(N)cccc1OCCO | 149 to 151 °C
CCc1c(-c2ccc(OCc3ccccc3)cc2)c2cc(CO)c3cccc1n32 | 148 to 150 °C
COC(COc1ccc(C(=O)NCC(NC(=O)OCc2ccccc2)C(=O)OC(C)(C)C)cc1)OC (stereo not given) | 115 °C
Cn1c(Sc2ccc(C(=O)OCC(C)(C)C)c(Cl)c2)n[nH]c1=O | 138 °C
CC(C)NC(=O)c1ccc(C(=O)N2CCN(c3ncccc3N)CC2)nc1 | 142 to 143 °C
CC1(C)Oc2ccc([N+](=O)[O-])cc2C(n2ccccc2=O)=C1CN | 231 °C
CC(=O)NC[C@H]1CN(c2cc(F)c(N3CCC(Cc4noc(C)n4)CC3)c(F)c2)C(=O)O1 | 134 to 136 °C
CCN[C@@H]1CN(C(=O)c2nn(C)c3ccccc23)C[C@@H]1C (relative stereo) | 62 to 64 °C
O=C(NS(=O)(=O)NCC1CCCO1)OCc1ccccc1 (stereo not given) | 96 to 97 °C
CC(=O)SCCN1C(=O)c2ccccc2C1=O | 112 to 114 °C
N#CC=C(N)c1ccc2ccccc2c1 | 85 to 90 °C
COc1ccc2c(c1)C(=O)C(=Cc1ccccc1)O2 | 134 °C
CC(C)(C)C(NC(=O)c1ccc(Cl)cc1F)NC(=NC#N)Nc1cccnc1 (stereo not given) | 183 to 184 °C
CCc1nnc2c(NC)nc3ccccc3n12 | 271 to 273 °C
O=C(OCCC1CCCCC1)c1ncn2c1[C@@H]1CCCN1C(=O)c1c(Cl)cccc1-2 | 131 to 132 °C
CN1CS(=Nc2ccc3[nH]nnc3c2)c2ccccc21 (stereo not given) | 240 °C
COc1ccc(/C=C/CNc2cccc(-c3ccnc4c(C(=O)c5cccs5)cnn34)c2)cc1 | 176 to 179 °C
c1ccc(OCC2CCN(CCCOc3cccc4[nH]c5ccccc5c34)CC2)cc1 | 126 to 128 °C
CC(C)=NOCc1nc2c(N)nc(C)c(C)c2n1CCCCN(C(N)=O)C1CCCCC1 | 210 to 212 °C
Cc1nn(C)c2nc(N)c(-c3ccc(F)cc3)nc12 | 208 to 210 °C
S=C1CN=C(c2ccccn2)c2cc(Cl)ccc2N1 | 217 to 218 °C
O=C1Nc2ccccc2N(C(=O)CN2C(=O)CCCC2=O)C2CCC(Cc3ccccc3)C12 (stereo not given) | 220 to 221 °C
COc1cc(C)c2ccc(N)nc2n1 | 233 to 236 °C

SMILES | melting point
CC(=O)NCCCc1cccc2c1CC(CCCCc1ccccc1)O2 (stereo not given) | 40 to 41 °C
O=C(CCN1CCN(c2ccccc2)CC1)Nc1ccc(O)cc1 | 172 to 174 °C
CCc1cc(C)cc(CC)c1CO | 71 to 72 °C
O=C1CCn2c(nc3ccccc32)N1 | > 260 °C
CCc1cc(-c2[nH]c3ccccc3c2CC)cc(CC)c1O | 96.3 to 96.7 °C
CCCN(CCC)C(=O)CN(C(=O)CN1C(=O)c2ccccc2C1=O)c1ccccc1 | 130 °C
Nc1c(N=O)c(=O)n(C2CC2)c(=O)n1C1CC1 | 230 °C
OC(COc1cccc2[nH]ncc12)CN1CCC(COc2ccccc2)CC1 (stereo not given) | 141 to 142 °C
CC(C)(C(=O)Nc1cc(Cl)cc(Cl)c1)N1COC(C#N)=C(c2ccccc2)C1=O | 132 to 135 °C
CC(C)c1nn(-c2ccccn2)c(-c2ccc(F)cc2)c1/C=C/CO | 106 to 109 °C
COC(=O)Cc1cc(=O)[nH]c2ccccc12 | 209 to 210 °C
N#Cc1n[nH]c(N)c1SC(F)(F)F | 187 °C
Cc1ccc(NC(=O)NCc2cccc3c2CN(C2CCC(=O)NC2=O)C3=O)cc1C (stereo not given) | > 260 °C
Cc1ccccc1OCc1ccccc1N | 56 °C
CCCCC#CCCOc1ccc(/C=C/C(=O)Nc2ccccc2C(=O)O)cc1OC | 169 to 170 °C
Nc1ccc(CCc2ccc(OCc3ccccc3)c(OCc3ccccc3)c2)cc1 | 97 to 101 °C
CC1(O[Si](C)(C)C(C)(C)C)CN(c2ccc([N+](=O)[O-])cc2F)C1 | 98 to 99.5 °C
O=C1CC(c2ccccc2OCc2ccccc2)=Nc2ccc(N3CCCC3)cc21 | 293 to 295 °C
CCC(C)(C)C1=C(O)C(=O)c2ccccc2C1=O | 52 °C
O=C(O)c1c(Oc2ccc(F)cc2)cccc1Oc1ccc2c(c1)OCO2 | 164 to 166 °C
Cn1c([N+](=O)[O-])cnc1-c1nnc(N)s1 | 266 to 268 °C
COc1cc(NC(=O)OC(C)(C)C)c(NC(=O)CC(=O)c2cccc(-n3ccnc3C)c2)cc1-c1ccccc1F | 83 to 86 °C
C#CCn1nnc2cc3c(=O)n(C(C)Cn4ncnn4)nnc3cc2c1=O (stereo not given) | 209 to 211 °C
O=[N+]([O-])c1cc(-c2cccnc2)ccc1O | > 300 °C
O=C1NC(=C2CCC2)Sc2ccccc21 | 147 to 149 °C
